For one assay, the system named is rat mixed cerebral cell culture. As to the kind of experiment: Neutralizing effect on lipopolysaccharide (LPS)-induced cytotoxicity in a rat mixed cerebral cell culture system (LIC assay). It counts as cell-based. Particulars: neonatal rat mixed cerebral cells, 4 to 5 days incubation, MTT, concentration giving 50% recovery rate, read-out: ED50 value. On the procedure: Neutralizing effect on lipopolysaccharide (LPS)--induced cytotoxicity in a rat mixed cerebral cell culture system (LIC assay)
LPS, a substance known to activate glial cells (astrocytes, microglia), was added to a rat mixed cerebral cell culture system and the compounds which would neutralize the cytotoxicity induced by LPS were screened by the following method.
(1) Neonatal rat mixed cerebral cell culture
From neonatal Crj:CD (SD) rats (1-3 day old, Charles-River Japan, Ltd), the brains were isolated and placed in ice-cooled D-MEM/10% FCS (Dulbecco's cell culture minimal essential medium supplemented with 10% of fetal calf serum, 100 units/ml of penicillin and 100 gg/ml of streptomycin). Then, mixed cerebral cell culture were treated in the following steps. Incidentally stating, ice-cooled D-MEM/10%FCS was used as the medium.
1. The cerebrum was separated from the enucleated brain and the meninges was removed under a stereoscopic microscope.
2. The cerebrums were placed in a nylon-mesh (100-200 μm) bag for filtration with the aid of a rubber policeman.
3. Using ice-cooled D-MEM/10% FCS, the cells were washed three times (1,000 rpm, 8 min.). Then, this cell suspension was subjected to filtration through a cell strainer (40 μm mesh, Falcon 2340) and the number of viable cells was counted by the trypan blue method.
4. The cells were seeded in a tissue-culture flask (96-well microtiter plate, Nunc) at a cell density of 1×10^5 cells/100 μl/well).
5. One week later, 100 μl/well of D-MEM/10% FCS was added.
6. The plate was further incubated for about 1 to 2 weeks and the neutralizing activity of the test compounds was evaluated by the following method.
(2) Evaluation of neutralizing activity
1. Following the rat mixed cerebral cell culture in (1) above (after 2-3 weeks of incubation), the medium was discarded from the respective wells of the 96-well microtiter plate, and 50 μl/well of fresh D-MEM/2% FCS was added.
2. A test sample and LPS (manufactured by Difco Inc., E. coli 011: B4, Bact) of an adequate concentration, 25 μl per well, were respectively added. D-MEM/2% FCS was employed as the medium.
As the test sample, each of the compounds shown in Table 21 was dissolved in DMSO at a concentration of 10^-2 M and the solution was diluted with D-MEM/2% FCS, which was used for assay.
3. After a suitable period (usually 4 to 5 days) of incubation, the degree of cytotoxic effect was assessed by the microscopic observation, and MTT method.
(3) MTT [3-(4,5-dimethylthiazol-2-yl)-2,5-diphenyltetrazolium bromide] method
MTT dissolved in a phosphate-buffered physiological saline solution (5 mg/ml, manufactured by Sigma Chemical Co.,) was added, 10 μl per well. After 4 to 6 hours of incubation (37° C., under 10% carbon dioxide gas phase), 100 μl/well of 0.01N HCl containing 10% SDS was added to thereby dissolve the formed formazan. After complete dissolution, the absorbance (wave-length 540-590 nm) was measure for each well.
The ED50 values were determined by calculating the recovery rates by means of the following equation and plotting the concentrations of compounds giving a recovery rate of 50% on graph paper.
Recovery rate (%)=(C-B)×100/(A-B)
[A: the absorbance at 550 nm of the control well to which only the medium had been was added
B: the absorbance at 550 nm of the well to which LPS had been added
C: the absorbance at 550 nm of the well to which both LPS and the test compound had been added]
With `N#CC(CCCCCC(=O)NO)(c1ccccc1)c1ccccc1` [Compound 1, 7-Cyano-7,7-diphenylheptanohydroxamic acid], the EC50 was 10 nM.
Same read-out and setting: for `N#CC(CCCCCC(=O)NO)(c1ccccc1)c1ccc(F)cc1` (stereo not drawn) [Compound 3, 7-cyano-7-(4-fluorophenyl)-7-phenylheptanohydroxamic acid] the value was 10 nM; for `COc1ccccc1C(C#N)(CCCCCC(=O)NO)c1ccccc1` (stereo not drawn) [Compound 4, 7-cyano-7-(2-methoxyphenyl)-7-phenylheptanohydroxamic acid], 10 nM.
Take `N#CC(CCCCCC(=O)NO)(c1ccccc1)c1nc2ccccc2s1` (stereo not drawn) [Compound 11, 7-(2-benzothiazolyl)-7-cyano-7-phenylheptanohydroxamic acid]: the EC50 stood at 10 nM.
On the same count and under the same terms, to `N#CC(CCCCCC(=O)NO)(c1ccccc1)c1ccc2ccccc2n1` (stereo not drawn) [Compound 12, 7-cyano-7-phenyl-7-(2-quinolyl)heptanohydroxamic acid] belongs 10 nM.
Same read-out and setting: for `CCC(=O)ONC(=O)CCCCCC(C#N)(c1ccccc1)c1ccccc1` [Compound 13, O-Propionyl-7-cyano-7,7-diphenylheptanohydroxamic acid] the value was 10 nM; for `CCC(=O)ONC(=O)CCCCCC(C#N)(c1ccccc1)c1ccc2ccccc2n1` (stereo not drawn) [Compound 20, O-propionyl-7-cyano-7-phenyl-7-(2-quinolyl)heptanohydroxamic acid], 10 nM; for `N#CC(CCCCCC(=O)NOC(=O)c1ccccc1)(c1ccccc1)c1ccc2ccccc2n1` (stereo not drawn) [Compound 21, O-benzoyl-7-cyano-7-phenyl-7-(2-quinolyl)heptanohydroxamic acid], 10 nM.

Another assay has as its system rats pretreated with LPS infused into the unilateral striatum. Kind of assay: Inhibitory effect on the apomorphine-induced circling behavior in rats pretreated with LPS infused into the unilateral striatum. The format is in vivo, rat. The note with it: male Wistar rats; i.p. 0.2 ml per 100 g, 30 minutes before LPS infusion and 3 and 24 hours after; apomorphine 1 mg/kg s.c. 7-8 days postoperatively; 30-minute count. As for the experimental part:
Inhibitory effect on the apomorphine -induced circling behavior in rats pretreated with LPS infused into the unilateral striatum Male Wistar rats (8-9 week old) weighing 250-280 g at the operation for LPS infusion were submitted to this experiment.. Throughout the experimental period, the animals were group-fed in a vivarium controlled at 24±1° C. and 55±1% R.H., with a light-dark cycle of 12 hr (7:00-19:00 ON) and free access to food (Clea Japan, Inc., CE-2 solid pellets) and water (tap water). Under pentobarbital (50 mg/kg, i.p.) anesthesia, the rat's head was immobilized in David Kopf's brain stereotaxic apparatus for small animal use and with reference to Pellegrino & Cushman's brain atlas, a 30 Gauge stainless steel needle was indwelled in the unilateral striatum (A8.2, L2.8, H4.3). The infusion volume of LPS was set at 5 μg. LPS was dissolved in 1 μl of a phosphate-buffered physiological saline solution (PBS, pH 7.2) and the solution was infused gradually at a speed of 0.2 μl/min. The infusion needle was kept in position till 3 minutes following infusion and withdrawn only after sufficient diffusion of the drug solution had taken place. After 7-8 days postoperatively, 1 mg/kg of apomorphine was administered subcutaneously and the number of induced circling behavior during a 30-minute period immediately following administration were determined with an automatic counter. […]
Regarding `N#CC(CCCCCC(=O)NO)(c1ccccc1)c1ccccc1` [Compound 1, 7-Cyano-7,7-diphenylheptanohydroxamic acid], the “number of induced circling behavior relative to control group” value was found to be 41%.
